{
  "source": "paper PMC8698657",
  "about": "“Absorption and Transport Characteristics and Mechanisms of Carnosic Acid” (Biology, 2021)",
  "assay": "Effect of verapamil, PEG 400 and EDTA on trans-enterocyte transport of CA",
  "format": "in vitro ADME, human",
  "details": "human, read-out: Papp AP to BL; for Papp A→B at 50 μM / Papp A→B at 75 μM / Papp A→B at 100 μM: Average of 0.5-3.0 h",
  "experimental": "CA was dissolved in HBSS solution at 50, 75, and 100 μM. The HBSS solution containing CA combined with 0.5% Tween 80, 5 mmol/L EDTA or 5% PEG 400 was prepared. The cumulative migration (Qr), apparent permeability coefficient (Papp), and the Papp value of bi-direction transport of CA were calculated according to formulas.\nThe 0.5 mL HBSS solution containing CA (50, 75, and 100 μM) combined with 100 μmoL/L verapamil, 5% PEG 400, or 5 mmol/L EDTA was added to the AP side of the Transwell plate, and 1.5 mL HBSS solution was added to the BL side. The effect of verapamil, Tween 80, PEG 400, and EDTA on the trans-enterocyte of CA was investigated according to the method described above. The TEER value of each Transwell chamber was measured.\nThe cryopreserved Transwell samples were transferred to a 15 mL centrifuge tube, and any remaining liquid was fully washed using 1 mL of 50% methanol solution which was also transferred to the 15 mL centrifuge tube. The mixture was vortexed for 1 min, and 6 mL of ethyl acetate solution was added to the tube and vortexed for another 2 min. The mixture was centrifuged at 6000 rpm/min at 4 °C for 10 min. The supernatant was dried under vacuum, dissolved in 5% phosphoric acid methanol solution, and filtered through a 0.22 μm microporous membrane. The concentration of CA was determined by HPLC as described above.",
  "key": {"[1]": {"details": "Caco-2, CA 50 μM, + 5 mmoL/L EDTA"}, "[2]": {"details": "Caco-2, CA 75 μM, + 5 mmoL/L EDTA"}, "[3]": {"details": "Caco-2, CA 100 μM, + 5% PEG 400"}, "[4]": {"details": "Caco-2, CA 100 μM, + 5 mmoL/L EDTA"}, "[5]": {"details": "Caco-2, with verapamil 100 μmol/L, CA 50 μM, + 100 μmoL/L verapamil"}, "[6]": {"details": "Caco-2, with verapamil 100 μmol/L, CA 75 μM, + 100 μmoL/L verapamil"}, "[7]": {"details": "Caco-2, with verapamil 100 μmol/L, CA 100 μM, + 100 μmoL/L verapamil"}, "[8]": {"details": "Caco-2, with verapamil 100 μmoL/L, CA 75 μM, + 100 μmoL/L verapamil"}},
  "note": "Where two headings read alike, the source gives them in different places.",
  "data": [
    {"compound": "CC(C)c1cc2c(c(O)c1O)[C@@]1(C(=O)O)CCCC(C)(C)[C@@H]1CC2", "note": "[CA, Carnosic acid]", "values": [
      {"measurement": "Papp A→B at 0.5 h, 50 μM", "setting": "Caco-2, CA 50 μM, + 5% PEG 400", "result": "37.6 ± 1.7", "unit": "nm/s"},
      {"measurement": "Papp A→B at 0.5 h, 50 μM", "setting": "[1]", "result": "5 ± 0.1", "unit": "nm/s"},
      {"measurement": "Papp A→B at 1 h, 50 μM", "setting": "Caco-2, CA 50 μM, + 5% PEG 400", "result": "39.6 ± 1", "unit": "nm/s"},
      {"measurement": "Papp A→B at 1 h, 50 μM", "setting": "[1]", "result": "2.4 ± 0.8", "unit": "nm/s"},
      {"measurement": "Papp A→B at 1.5 h, 50 μM", "setting": "Caco-2, CA 50 μM, + 5% PEG 400", "result": "23.5 ± 0.1", "unit": "nm/s"},
      {"measurement": "Papp A→B at 1.5 h, 50 μM", "setting": "[1]", "result": "6.2 ± 0.2", "unit": "nm/s"},
      {"measurement": "Papp A→B at 2 h, 50 μM", "setting": "Caco-2, CA 50 μM, + 5% PEG 400", "result": "18.6 ± 3.5", "unit": "nm/s"},
      {"measurement": "Papp A→B at 2 h, 50 μM", "setting": "[1]", "result": 9.2, "unit": "nm/s"},
      {"measurement": "Papp A→B at 2.5 h, 50 μM", "setting": "Caco-2, CA 50 μM, + 5% PEG 400", "result": "18.9 ± 0.4", "unit": "nm/s"},
      {"measurement": "Papp A→B at 2.5 h, 50 μM", "setting": "[1]", "result": "9.5 ± 0.2", "unit": "nm/s"},
      {"measurement": "Papp A→B at 3 h, 50 μM", "setting": "Caco-2, CA 50 μM, + 5% PEG 400", "result": "23.4 ± 0.1", "unit": "nm/s"},
      {"measurement": "Papp A→B at 3 h, 50 μM", "setting": "[1]", "result": "14.9 ± 0.2", "unit": "nm/s"},
      {"measurement": "Papp A→B at 50 μM", "setting": "Caco-2, CA 50 μM, + 5% PEG 400", "result": "26.9 ± 0.4", "unit": "nm/s"},
      {"measurement": "Papp A→B at 50 μM", "setting": "[1]", "result": "7.9 ± 0.3", "unit": "nm/s"},
      {"measurement": "Papp A→B at 0.5 h, 75 μM", "setting": "Caco-2, CA 75 μM, + 5% PEG 400", "result": "39 ± 1", "unit": "nm/s"},
      {"measurement": "Papp A→B at 0.5 h, 75 μM", "setting": "[2]", "result": "9.2 ± 0.8", "unit": "nm/s"},
      {"measurement": "Papp A→B at 1 h, 75 μM", "setting": "Caco-2, CA 75 μM, + 5% PEG 400", "result": "29.9 ± 0.9", "unit": "nm/s"},
      {"measurement": "Papp A→B at 1 h, 75 μM", "setting": "[2]", "result": "19 ± 0.8", "unit": "nm/s"},
      {"measurement": "Papp A→B at 1.5 h, 75 μM", "setting": "Caco-2, CA 75 μM, + 5% PEG 400", "result": "27.2 ± 4.6", "unit": "nm/s"},
      {"measurement": "Papp A→B at 1.5 h, 75 μM", "setting": "[2]", "result": "19.4 ± 0.7", "unit": "nm/s"},
      {"measurement": "Papp A→B at 2 h, 75 μM", "setting": "Caco-2, CA 75 μM, + 5% PEG 400", "result": "23.5 ± 1", "unit": "nm/s"},
      {"measurement": "Papp A→B at 2 h, 75 μM", "setting": "[2]", "result": "20.8 ± 0.3", "unit": "nm/s"},
      {"measurement": "Papp A→B at 2.5 h, 75 μM", "setting": "Caco-2, CA 75 μM, + 5% PEG 400", "result": "15.2 ± 0.6", "unit": "nm/s"},
      {"measurement": "Papp A→B at 2.5 h, 75 μM", "setting": "[2]", "result": "12.8 ± 1", "unit": "nm/s"},
      {"measurement": "Papp A→B at 3 h, 75 μM", "setting": "Caco-2, CA 75 μM, + 5% PEG 400", "result": "11.9 ± 0.6", "unit": "nm/s"},
      {"measurement": "Papp A→B at 3 h, 75 μM", "setting": "[2]", "result": "5.7 ± 0.1", "unit": "nm/s"},
      {"measurement": "Papp A→B at 75 μM", "setting": "Caco-2, CA 75 μM, + 5% PEG 400", "result": "14.5 ± 0.8", "unit": "nm/s"},
      {"measurement": "Papp A→B at 75 μM", "setting": "[2]", "result": "14.5 ± 0.5", "unit": "nm/s"},
      {"measurement": "Papp A→B at 0.5 h, 100 μM", "setting": "[3]", "result": "32.1 ± 4.7", "unit": "nm/s"},
      {"measurement": "Papp A→B at 0.5 h, 100 μM", "setting": "[4]", "result": 3.8, "unit": "nm/s"},
      {"measurement": "Papp A→B at 1 h, 100 μM", "setting": "[3]", "result": "35.9 ± 1", "unit": "nm/s"},
      {"measurement": "Papp A→B at 1 h, 100 μM", "setting": "[4]", "result": "22.5 ± 0.9", "unit": "nm/s"},
      {"measurement": "Papp A→B at 1.5 h, 100 μM", "setting": "[3]", "result": "28.9 ± 0.5", "unit": "nm/s"},
      {"measurement": "Papp A→B at 1.5 h, 100 μM", "setting": "[4]", "result": "19.6 ± 0.7", "unit": "nm/s"},
      {"measurement": "Papp A→B at 2 h, 100 μM", "setting": "[3]", "result": "22.5 ± 0.2", "unit": "nm/s"},
      {"measurement": "Papp A→B at 2 h, 100 μM", "setting": "[4]", "result": "30.1 ± 0.3", "unit": "nm/s"},
      {"measurement": "Papp A→B at 2.5 h, 100 μM", "setting": "[3]", "result": "24.4 ± 0.1", "unit": "nm/s"},
      {"measurement": "Papp A→B at 2.5 h, 100 μM", "setting": "[4]", "result": "18.2 ± 0.8", "unit": "nm/s"},
      {"measurement": "Papp A→B at 3 h, 100 μM", "setting": "[3]", "result": "21.4 ± 0.2", "unit": "nm/s"},
      {"measurement": "Papp A→B at 3 h, 100 μM", "setting": "[4]", "result": "15.6 ± 0.7", "unit": "nm/s"},
      {"measurement": "Papp A→B at 100 μM", "setting": "[3]", "result": "27.6 ± 0.7", "unit": "nm/s"},
      {"measurement": "Papp A→B at 100 μM", "setting": "[4]", "result": "18.3 ± 0.5", "unit": "nm/s"},
      {"measurement": "Papp A→B at 0.5 h, 50 μM", "setting": "[5]", "result": "19.8 ± 0.6", "unit": "nm/s"},
      {"measurement": "Papp A→B at 1 h, 50 μM", "setting": "[5]", "result": "18.9 ± 0.9", "unit": "nm/s"},
      {"measurement": "Papp A→B at 1.5 h, 50 μM", "setting": "[5]", "result": "18.4 ± 0.6", "unit": "nm/s"},
      {"measurement": "Papp A→B at 2 h, 50 μM", "setting": "[5]", "result": "20.8 ± 1", "unit": "nm/s"},
      {"measurement": "Papp A→B at 2.5 h, 50 μM", "setting": "[5]", "result": "9.5 ± 0.3", "unit": "nm/s"},
      {"measurement": "Papp A→B at 3 h, 50 μM", "setting": "[5]", "result": "13.7 ± 0.9", "unit": "nm/s"},
      {"measurement": "Papp A→B at 3 h, 75 μM", "setting": "[6]", "result": "6.9 ± 0.1", "unit": "nm/s"},
      {"measurement": "Papp A→B at 75 μM", "setting": "[6]", "result": "15.3 ± 0.4", "unit": "nm/s"},
      {"measurement": "Papp A→B at 0.5 h, 100 μM", "setting": "[7]", "result": "12.6 ± 0.2", "unit": "nm/s"},
      {"measurement": "Papp A→B at 1 h, 100 μM", "setting": "[7]", "result": "17 ± 0.1", "unit": "nm/s"},
      {"measurement": "Papp A→B at 1.5 h, 100 μM", "setting": "[7]", "result": "29.9 ± 0.3", "unit": "nm/s"},
      {"measurement": "Papp A→B at 2 h, 100 μM", "setting": "[7]", "result": "12.4 ± 0.2", "unit": "nm/s"},
      {"measurement": "Papp A→B at 2.5 h, 100 μM", "setting": "[7]", "result": "9.5 ± 0.5", "unit": "nm/s"},
      {"measurement": "Papp A→B at 3 h, 100 μM", "setting": "[7]", "result": "10.9 ± 0.2", "unit": "nm/s"},
      {"measurement": "Papp A→B at 100 μM", "setting": "[7]", "result": "15.3 ± 0.7", "unit": "nm/s"},
      {"measurement": "Papp A→B at 50 μM", "setting": "Caco-2, with verapamil 100 μmoL/L, CA 50 μM, + 100 μmoL/L verapamil", "result": "15 ± 0.2", "unit": "nm/s"},
      {"measurement": "Papp A→B at 0.5 h, 75 μM", "setting": "[8]", "result": "11.2 ± 0.1", "unit": "nm/s"},
      {"measurement": "Papp A→B at 1 h, 75 μM", "setting": "[8]", "result": "13.2 ± 0.1", "unit": "nm/s"},
      {"measurement": "Papp A→B at 1.5 h, 75 μM", "setting": "[8]", "result": "8.5 ± 0.3", "unit": "nm/s"},
      {"measurement": "Papp A→B at 2 h, 75 μM", "setting": "[8]", "result": "19.4 ± 0.6", "unit": "nm/s"},
      {"measurement": "Papp A→B at 2.5 h, 75 μM", "setting": "[8]", "result": "8.7 ± 1", "unit": "nm/s"}
    ]}
  ]
}
